Measurements taken from PMC10535741, “Styrylpyridinium Derivatives for Fluorescent Cell Imaging” (Pharmaceuticals, 2023).
“And” between values parts separate entries of the source, which are not always exact repeats. Equal values may be shown once. Read-outs that look alike come from different tables or passages of the source.

Key:
[1] = Excitation/emission fluorescence spectra; format: physicochemical; conditions: for fluor. max. λ, nm / excitation λ, nm: DMSO solution; for excitation λ, nm: excitation giving maximum fluorescence intensity; for Stokes' shift, nm: DMSO
Procedure: The resonance structures of compounds 6d,e (Figure 2a) show a possibly intramolecular charge transfer between the julolidine moiety and the pyridinium unit. The normalised fluorescence spectra of the tested compounds 6a–e and 7a,b in DMSO solution (Figure 2c) and the fluorescence spectra of compound 6e in various media (Figure 2d) were measured using a spectrophotometer multiplate reader (Infinite M1000). The UV/Vis spectra in DMSO solution of compounds 6a–g (Figure 2b) were reordered with a UV/Vis spectrophotometer, and the fluorescence spectra of compound 6e in EtOH–glycerol mixtures (Figure 2e) were collected with a Spectrofluorometer FS5.
According to the calculations, the excitation occurs at 542 nm and the emission at 765 nm. The obtained theoretical calculation data are in good agreement with the experimental data, where the excitation occurs at 530 nm and the emission at 760 nm (Table 3).
We have also tested whether the characteristics of compound 6e depended upon the viscosity of its surrounding environment. […] It was underlined that water media reduced the fluorescence quantum yields and the lifetime of organic fluorophores by up to threefold. […] In pure glycerol, the maximum value of fluorescence was detected at 645 nm. As the amount of glycerol decreased, the fluorescence intensity of the sample decreased as well. The second fluorescence maximum at 720 nm was observed when the amount of ethanol had reached approximately 50% in the composition.
A concentration of 10 mM stock solution of compounds 6 or 7 was prepared by dissolving the compounds in DMSO. Working solutions were prepared by diluting the 10 mM stock solution of compounds with different solvents to reach the final concentration for the samples: DMSO (compound concentration 0.1 mM); for compound 6e: in glycerol (concentration 0.01 mM), in water (concentration 0.5 mM), in 0.1 M HCl (concentration 0.5 mM), in 0.1 M NaOH (concentration 0.5 mM), or in 1% DMSO/99% water (concentration […]). The fluorescence spectra were measured using a spectrophotometer multiplate reader (Tecan Infinite M1000; Tecan Austria GmbH, Salzburg, Austria). For excitation/emission fluorescence spectra measurements, the following measurement parameters were applied: excitation wavelength from 260 nm to 690 nm with a 10 nm sampling interval and emission wavelength from 300 nm to 840 nm with a 10 nm sampling interval. The fluorescence spectra of compound 6e (concentration 5 mM) in EtOH–glycerol mixtures were measured with an Edinburgh Instruments FS5 Spectrofluorometer (Edinburgh Instruments Ltd., Kirkton Campus, UK). The data were analysed using Microsoft Excel software version 2308.

[2] = test system: MH-22A (mouse hepatocarcinoma); experiment: MTT cytotoxicity assay, MH-22A; format: cell-based; conditions: for IC50: Mus musculus, read-out: IC50 (µg/mL) MH-22A
Procedure: (§1) The evaluation of the in vitro cytotoxicity (IC50, half maximal inhibitory concentration) of the abovementioned compounds and their structural derivatives was assessed using the standard colorimetric 3-(4,5-dimethylthiazol-2-yl)-2,5-diphenyltetrazolium bromide (MTT) assay on two monolayer tumour cell lines, namely HT-1080 (human connective tissue fibrosarcoma) and MH-22A (mouse hepatocarcinoma). Additionally, the impact of the compound on non-cancerous “normal” cells—mouse fibroblasts (NIH3T3)—was estimated in order to measure the basal toxicity (LD50, median lethal dose). The obtained results were used for investigation of the structure–activity relationships and exploration of the effect of substituents on cellular response and toxicity. The estimated LD50 gives information regarding the compound properties and could potentially be used to select promising compounds by providing a starting dose for in vivo experiments.
(§2) The HT-1080 (human connective tissue fibrosarcoma, ATCC® CCL-121™), MH-22A (mouse hepatocarcinoma, ECACC Cat. No. 96121721), A-549 (human lung carcinoma, ATCC® CCL-185™), NIH3T3 (Swiss Albino mouse embryo fibroblast, ECACC Cat. No. 93061524), Hek293 (human embryonic kidney, ATCC® CRL-1573™), BHK-21 (Syrian hamster kidney, ATCC® CCL-10™), A-431 (human epidermoid carcinoma, ATCC® CRL-1555™), Saos-2 (human osteosarcoma, ATCC® HTB-85™), HeLa (human epitheloid cervix carcinoma, ATCC® CCL-2™), U937 (human myeloid leukaemia, ATCC® CRL-1593.2™), C6 (rat glioma, ATCC® CCL-107™), and B16-F10 (murine melanoma, ATCC® CRL-6475™) cell lines were obtained from the American Type Culture Collection (ATCC) and European Collection of Authenticated Cell Cultures (ECACC).
(§3) HT-1080, MH-22A, A-549, NIH3T3, BHK-21, A-431, HeLa, and B16-F10 cells were cultured in Dulbecco’s Modified Eagle’s Medium (DMEM) with 2 mM glutamine and 10% foetal bovine serum (FBS). Hek293 cells were cultured in Eagle’s Minimum Essential Medium with 10% foetal bovine serum. U937 cells were cultured in RPMI-1640 Medium with 2 mM glutamine and 10% foetal bovine serum. C6 cells were cultured in Ham’s F12 Medium with 2 mM glutamine and 10% foetal bovine serum. Saos-2 cells were cultured in McCoy’s 5a Medium with 2 mM glutamine and 10% foetal bovine serum. The cells were incubated at 37 °C with 5% CO2, 95% air, and complete humidity. Once ~90% confluence was reached, they were detached using 0.05% trypsin/EDTA and counted. The cells were plated at optimally determined densities for the logarithmic phase of growth. These cells were then suspended at a concentration of 4000 cells/well for HT-1080, MH-22A, A-549, NIH3T3, BHK-21, A-431, HeLa, B16-F10, Hek293, and Saos-2 cells and a concentration of 9000 cells/well for U937, C6, Hek293, and GM08402 cells and added onto a 96-well plate. For background absorption, some wells remained cell free, i.e., as a blank control. Cells were incubated for 72 h at 37 °C and 5% CO2 where they were exposed to a media containing serial dilutions of the investigated compounds (n = 3). Cell viability was measured using the 3-(4,5-dimethylthiazol-2-yl)-2,5-diphenyl-tetrazolium bromide (MTT) assay. In brief, after incubating with compounds, the culture medium was removed and fresh medium with 0.2 mg/mL MTT was added to each well of the plate. After incubation (3 h, 37 °C, 5% CO2), the medium with MTT solution was removed and replaced with 200 µL DMSO and 25 µL Sorenson’s glycine buffer (glycine 0.1 M, NaCl 0.1 M, pH: 10.5 with 0.1 M NaOH). The plate was shaken for 15 min at room temperature and the optical density (OD) of the wells was determined using a multichannel spectrophotometer (Thermo Scientific Multiskan EX) at 540 nm. The quantity of the control cells was taken in calculations as 100%. The IC50 value was calculated using the program Graph Pad Prism® 3.0.

[3] = test system: HT-1080 (human connective tissue fibrosarcoma); experiment: MTT cytotoxicity assay, HT-1080; format: cell-based; conditions: for IC50: Homo sapiens, read-out: IC50 (µg/mL) HT-1080
Procedure: as §1, §2, §3

| SMILES | fluor. max. λ, nm [1] | excitation λ, nm [1] [nm] | IC50 ([2]; 72 h treatment, MTT) [µg/mL] | IC50 ([3]; HT-1080, 72 h treatment, MTT) [µg/mL] | further results |
| --- | --- | --- | --- | --- | --- |
| CCCCCCCCCCCC[n+]1ccc(C=Cc2cc3c4c(c2)CCCN4CCC3)cc1.[Br-] [Compound 6d, 1-dodecyl-4-(2-(2,3,6,7-tetrahydro-1H,5H-pyrido[3,2,1-ij]quinolin-9-yl)vinyl)pyridin-1-ium bromide] | 660 nm | 530 | 0.05 ± 0.003 | 1.4 ± 0.3 | times higher cytotoxicity towards MH-22A than compound 7a ([2]; 6d versus 7a): 80 times |
| CCCCCCCCCCCCCCCC[n+]1ccc(C=Cc2cc(OC)c(OC)c(OC)c2)cc1.[Br-] [Compound 6b] | 580 nm | 380 | – | – | IC50 (µg/mL) MH-22A ([2]; 72 h treatment, MTT): 1.08 ± 0.06 µg/mL; IC50 (µg/mL) HT-1080 ([3]; 72 h treatment, MTT): 0.18 ± 0.02 µg/mL |
| CCCCCCCCCCCC[n+]1ccc(C=Cc2cc(OC)c(OC)c(OC)c2)cc1.[Br-] [Compound 6a, 4-(3,4,5-trimethoxystyryl)-N-dodecylpyridinium bromide] | 580 nm | 380 | 0.45 ± 0.08 | 0.22 ± 0.06 | times more toxic than 6b in MH-22A ([2]; 6a versus 6b): 2.4 times; times lower cytotoxicity of 6a compared with 6d, MH-22A ([2]; ratio of IC50 values): 8.5 times |
| C(=C\c1cc2c3c(c1)CCCN3CCC2)/c1cc[n+](CCC[n+]2ccc(/C=C/c3cc4c5c(c3)CCCN5CCC4)cc2)cc1 [Compound 7a] | 660 nm | 530 | – | – | IC50 ([2]; 72 h): 4 ± 0.3 µg/mL; IC50 ([3]; HT-1080, 72 h): 2 ± 0.3 µg/mL |
| CCCCCCCCCCCCCCCC[n+]1ccc(C=CC=Cc2cc3c4c(c2)CCCN4CCC3)cc1.[Br-] [Compound 6e, 1-hexadecyl-4-(4-(2,3,6,7-tetrahydro-1H,5H-pyrido[3,2,1-ij]quinolin-9-yl)buta-1,3-dien-1-yl)pyridin-1-ium bromide] | 760 nm and ~ 760 nm | 530 | 0.4 ± 0.06 | 1 ± 0.03 | Stokes' shift, nm [1]: 240 nm; second fluorescence maximum ([1]; EtOH-glycerol mixture, ethanol approximately 50%): 720 nm; fluorescence emission maximum wavelength ([1]; pure glycerol): 645 nm; times more toxic to MH-22A than against non-cancerous Hek-293 ([2]; selectivity MH-22A versus Hek-293): 3.75 times; times more cytotoxic to MH-22A than against non-cancerous NIH3T3 ([2]; selectivity MH-22A versus NIH3T3): eight; times higher cytotoxicity towards HT-1080 than 6d ([3]; 6e versus 6d): 1.4 times |
| CCCCCCCCCCCCCCCC[n+]1ccc(C=CC=Cc2ccc(OC)cc2)cc1.[Br-] [Compound 6c, 1-hexadecyl-4-(4-(4-methoxyphenyl)buta-1,3-dien-1-yl)pyridin-1-ium bromide] | 760 nm and ~ 760 nm | 530 | 0.13 ± 0.03 | 0.2 ± 0.04 | Stokes' shift, nm [1]: 352 nm |
| C(C=Cc1cc2c3c(c1)CCCN3CCC2)=Cc1cc[n+](CCC[n+]2ccc(C=CC=Cc3cc4c5c(c3)CCCN5CCC4)cc2)cc1.[Br-].[Br-] [Compound 7b, 1,1′-(propane-1,3-diyl)bis(4-(4-(2,3,6,7-tetrahydro-1H,5H-pyrido[3,2,1-ij]quinolin-9-yl)buta-1,3-dien-1-yl)pyridin-1-ium) dibromide] | 770 nm and ~ 760 nm | 530 | 5 ± 0.6 | 6 ± 0.2 | – |
